The test system of data set [1] is formalin-induced tonic flinch responses. The conditions noted are these: rat, in vivo.
Data set [2] has as its system heart rate and arterial blood pressure. The conditions noted are these: rat, in vivo.
For data set [3], the system named is GI transit. The conditions noted are these: rat, in vivo.
The test system of data set [4] is thermal (heat) response latencies. The conditions noted are these: rat, in vivo.
Data set [5] concerns formalin-induced tonic flinch responses. The conditions noted are these: rat, in vivo; cited from earlier work.

On to `NCC(CC(=O)O)c1ccc(Cl)cc1` (stereo not drawn) [baclofen, γ-amino-β-(p-chlorophenyl) butyric acid], for which the “formalin-induced tonic (persistent) pain behavior” value (“formalin-induced tonic” for short) in data set [1] was “dose-dependent reductions”.
Regarding `CCCCN1CCCCC1C(=O)Nc1c(C)cccc1C` (stereo not drawn) [bupivacaine], in data set [1], the “formalin-induced tonic” value is listed as “did not significantly inhibit” and the hindpaw paralysis entry is given as “immediate but transient hindpaw paralysis”.
Turning to `Clc1cccc(Cl)c1N=C1NCCN1` [clonidine, 2,6-dichloro-N-2-imidazolidinylidenebenzenamine], in data set [2], the heart rate result is on record as “dose-dependent bradycardia”. In addition, in data set [1], the “formalin-induced tonic” value is given as “dose-dependently suppressed”.
In the case of `CN1CC[C@]23c4c5ccc(O)c4OC2C(O)C=C[C@H]3[C@H]1C5` (stereo partly drawn) [morphine, 7,8-didehydro-4,5-epoxy-17-methylmorphinan-3,6-diol], the GI transit entry in data set [3] is “dose-dependent inhibition”. Besides, in data set [4], the “development of tolerance to analgesic effects” value is reported as “declined in magnitude” and the “thermal (heat) response latencies” value is reported as “moderately antinociceptive”. For the same compound, the “tonic formalin-induced flinching behavior after six days infusion” value in data set [5] was “significantly reduced”.
